# Measurements from patent US20070112076A1, “Methods and materials for treating retinopathy” (SOUTHERN ILLINOIS UNIVERSITY, priority 2005, published 2007).
# Legend:
# retina = conditions: osmotic pump in the rat; cited from earlier work
# [1] = test system: iNOS protein expression in human retinal endothelial cells; assay: Western blot of iNOS protein expression after agonist treatment of retinal endothelial cells; assay type: cell-based
# Method: (§1) Denaturing sample buffer (1 ml 2×GDW, 640 μl 1 M Tris-HCl, pH 6.8, 420 μl 30% glycerol, 250 μl β-mercaptoethanol, 200 μL 0.05% bromophenol blue, and 0.125 g recrystallized SDS) was added to 50 μg of protein, as determined by Bradford assay. Protein samples with sample buffer were centrifuged for 5 min to thoroughly mix the samples, followed by heat denaturation for 5 min at 100° C. Protein samples were then separated on 4-12% pre-cast tris-glycine gels (Invitrogen, Carlsbad, Calif.). Electrophoresis and immunoblotting were done as previously described (Steinle et al., J. Biol. Chem. 278 (2003) (23), pp. 20681-20686) using antibodies to iNOS (diluted 1:500, Chemicon, Temecula, Calif.) and PGE2-EP2 receptor subtype (diluted 1:500, Chemicon). Mean densitometry of immunoreactive bands was assessed using Kodak software, and results are expressed in densitometric units. A paired T-test was performed between the sympathectomized and contralateral retina with significance accepted at P<0.05.
# (§2) Initial studies focused on human retinal endothelial cells, which express β-adrenergic receptors. Human microvascular retinal endothelial cells were isolated by Applied Cell Biology Research Institute and sold by Cell Systems (Kirkland, Wash.). Cells were used at passage 3-5 for all experiments. Cells were identified as endothelial cells on the basis of their cobblestone morphology. Cells were grown in attachment factor-coated Corning® dishes and in either high or low glucose media. Both high and low glucose media were identical (purchased from Cell Systems and supplemented with 20% fetal bovine serum, 100 IU/ml penicillin, 100 μg/ml streptomycin, and 0.25 μg/ml amphotericin B) except for the glucose concentration: 25 mM glucose (high glc) or 5 mM glucose (low glc). Cells were adjusted to the appropriate glucose environment for 5 days before the experiments were conducted in starvation medium. Starvation medium had the appropriate concentration of glucose and contains all of the above ingredients except that 0.2% bovine serum albumin is substituted for 20% serum.
# For experiments, cells were starved for 18-24 h using starvation medium to insure that the results obtained are due to agonist stimulation, not residual effects from the serum. Following starvation, 10 μM isoproterenol (non-specific β-adrenergic receptor agonist), 10 μM xamoterol (β1-adrenergic receptor subtype agonist), or 10 μM BRL37344 (β3-adrenergic receptor subtype agonist) was placed onto dishes and allowed to act on the cells for 1, 2, or 6 h. Three dishes received no treatment and serve as not-treated controls. […] The effects of xamoterol and BRL37344 were evaluated under high glucose conditions only. […]
# [2] = test system: PGE2 levels in human retinal endothelial cells; assay: PGE2 ELISA in retinal endothelial cells after agonist treatment; assay type: cell-based; conditions: low or high glucose media, 10 μM, 1, 2 or 6 h
# Description: as §2, with “An ELISA assay to measure PGE2 content in cell culture supernatants and retinal samples was purchased from Endogen (Pierce Biotechnology, Rockford, Ill.) and used according to the manufacturer's instructions. Initial” for “Initial”, “serum. […] The effects of xamoterol and BRL37344 were evaluated under high glucose conditions only.” for “serum.”
# [3] = test system: PKA activity in the retina; assay: PKA ELISA on retinal lysates after eye drops; assay type: in vivo, rat; conditions: 4 drops of 100 μM eye drops
# Method: Three groups of animals were used for these experiments. The first group was made diabetic by a single injection of 60 mg/kg streptozotocin and allowed to remain diabetic for 2.5 month and received 4 drops of 100 μM isoproterenol placed into both eyes (STZ). The other two groups were control groups, with one group being non-diabetic but receiving the 100 μM isoproterenol eye drops (Normal), and the other group not receiving any treatment (NT). At 4, 8 and 12 hours after treatment with isoproterenol, retina from the rats was assayed for PKA by ELISA and CREB by Western blot analysis. The retina of rats from each group was assayed for PKA by ELISA. Three rats were evaluated at each time point (4 hours, 8 hours and 12 hours). The PKA ELISA was carried out using the […] Protein Kinase Assay System from Upstate (Lake Placid, N.Y.). To begin the experiments, 0.1M ATP was made and set to a pH of 7.0. cAMP at a concentration of 20 μM was made with reagents purchased from Sigma Aldrich. To obtain the samples to be assayed, animals were sacrificed and the retina was removed and placed in reaction buffer supplied in the kit. One hundred microliters of each sample in reaction buffer was placed into coated wells of a 96-well plate in duplicate. […] Following application of 100 μL of stop solution to end the reaction with the substrate, the plate was read at 490 nm on a BioTek Plate Reader.
# [4] = test system: PGE2-EP2 receptor subtype expression in human retinal endothelial cells; assay: Western blot of PGE2-EP2 receptor subtype expression in retinal endothelial cells; assay type: cell-based; conditions: low or high glucose media, 10 μM, 1, 2 or 6 h
# Method: as §1
# Initial studies focused on human retinal endothelial cells, which express β-adrenergic receptors. […]
# For experiments, cells were starved for 18-24 h using starvation medium to insure that the results obtained are due to agonist stimulation, not residual effects from the serum. […] The effects of xamoterol and BRL37344 were evaluated under high glucose conditions only. […]
# [5] = test system: CREB protein expression in the retina; assay: Western blot of CREB protein expression in retina after eye drops; assay type: in vivo, rat; conditions: 100 μM eye drops, diabetic animals, 8 hours, compared to the normal group
# Method: Three groups of animals were used for these experiments. The first group was made diabetic by a single injection of 60 mg/kg streptozotocin and allowed to remain diabetic for 2.5 month and received 4 drops of 100 μM isoproterenol placed into both eyes (STZ). The other two groups were control groups, with one group being non-diabetic but receiving the 100 μM isoproterenol eye drops (Normal), and the other group not receiving any treatment (NT). At 4, 8 and 12 hours after treatment with isoproterenol, retina from the rats was assayed for PKA by ELISA and CREB by Western blot analysis.
# Western blot analysis was also done to determine protein expression of CREB. Two rats were evaluated at each time point (4 hours, 8 hours and 12 hours). Animals were sacrificed and the eyes were removed. The retina was extracted and placed into lysis buffer (50 mM Tris-HCL, pH 7.4; 1% NP-40, 0.25% Na-deoxycholate; 150 mM NaCl; 1 mM EDTA; 1 mM PMSF; 1 μg/ml each of aprotinin, leupeptin, pepstatin; 1 mM Na3VO4; 1 mM NaF; 0.1% SDS). Protein lysates were homogenized and centrifuged to generate a pellet and supernatant. […] Immunoreactive bands were detected by enhanced SuperSignal (Pierce, Rockford, Ill.) and analyzed using the Kodak 2000R image station. Mean densitometry was assessed using Kodak software, and results are expressed as a percentage of the not treated eyes. […]
# [6] = high glucose medium, 10 μM, 1, 2 or 6 h, vs. NT
smiles,measurement,setting,value
Cc1ccc(N(CC2=NCCN2)c2cccc(O)c2)cc1 [phentolamine],retinal changes as observed after sympathectomy,retina,no effect
O=C(NCCNCC(O)COc1ccc(O)cc1)N1CCOCC1 (centres unmarked) [xamoterol],iNOS protein expression,[1]; [6],decreased iNOS protein expression
CC(C)NCC(O)c1ccc(O)c(O)c1 (centres unmarked) [isoproterenol],PGE2 protein levels,[2],did not affect
same,PKA activity in retina,[3]; 12 hours after treatment,"significantly increased at 12 hours after treatment relative to the normal, but not when compared to the not treated group"
same,PKA activity in retina,"[3]; STZ diabetic rats, 8-hour time point, P<0.05 vs. not-treated and vs. normal",significantly increased
same,iNOS protein expression,"[1]; high glucose (25 mM) medium, 10 μM, 6 h, P<0.05 vs. not treated",significantly reduced
same,iNOS protein expression,"[1]; low glucose (5 mM) medium, 10 μM, 6 h, P<0.05 vs. not treated",upregulation
same,PGE2-EP2 receptor subtype expression,[4],did not affect
same,CREB protein expression in retina,[5],substantial increase
CC(C)NCC(O)COc1cccc2ccccc12 (centres unmarked) [propranolol],retinal changes as observed after sympathectomy,retina,can be mimicked
C[C@H](Cc1ccc(OCC(=O)O)cc1)NC[C@H](O)c1cccc(Cl)c1 [BRL37344],iNOS protein expression,[1]; [6],no effect
